Measurements as given in PubChem BioAssay (NCI).
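Protocol summary: plate cells (96-well), add compound at 5 concentrations, incubate 48 h, interpolate endpoints linearly. GI50 marks 50% less growth. TGI is the concentration that stops growth completely.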

How the values were obtained:
Experiment in all cases: inhibition of tumour cell growth, NCI panel, 48 h
[1] = test system: MDA-MB-435
[2] = test system: PC-3 prostate
[3] = test system: K-562 leukemia
[4] = test system: SF-268 CNS
[5] = test system: 786-0 renal
[6] = test system: RXF 393 renal
[7] = test system: SF-539 CNS
[8] = test system: HT29 colon
[9] = test system: UO-31 renal
[10] = test system: CCRF-CEM leukemia

Compound | TGI [1] | TGI [2] | TGI [3] | TGI [4] | TGI [5] | TGI [6] | TGI [7] | TGI [8] | TGI [9] | TGI [10] | GI50 [1] | GI50 [2] | GI50 [3] | GI50 [4] | GI50 [5] | GI50 [6] | GI50 [7] | GI50 [8] | GI50 [9] | GI50 [10]
O=C1C(Sc2ccc3ccccc3c2)=C(Sc2ccc3ccccc3c2)C(=O)c2ccccc21 | 31.5 µM | 31.8 µM | 19 µM | 28.7 µM | 25.3 µM | 32.6 µM | 22.8 µM | 29 µM | 15.8 µM | – | – | – | – | – | – | – | – | – | – | –
N#CNC1=NC(N)C(c2nc3ccccc3[nH]2)=C(CCCC(=O)Nc2cccc([N+](=O)[O-])c2)N1 (centres undefined) | – | – | > 100 µM | > 100 µM | > 100 µM | > 100 µM | > 100 µM | > 100 µM | > 100 µM | > 100 µM | – | – | – | – | – | – | – | – | – | –
O=C1/C(=C/c2ccccc2O)N=C(c2ccccc2)N1c1cc(C(F)(F)F)ccc1Cl | > 100 µM | > 100 µM | > 100 µM | 97.4 µM | 44.1 µM | 81.3 µM | > 100 µM | > 100 µM | > 100 µM | – | 22.1 µM | 42.7 µM | > 100 µM | 26.2 µM | 18.3 µM | 29900 nM | 59500 nM | > 100 µM | 94.2 µM | –
Clc1nc(Cl)c2ncn(CCOCCn3cnc4c(Cl)nc(Cl)nc43)c2n1 | 0.466 µM | 0.365 µM | > 100 µM | 0.347 µM | 0.935 µM | 0.474 µM | 0.381 µM | – | 1.25 µM | – | 0.204 µM | 0.188 µM | 0.361 µM | 0.194 µM | 0.325 µM | 222 nM | 170 nM | – | 0.633 µM | 0.226 µM
CCOC(=O)C(CCCNC(=O)OC(C)(C)C)N(Cc1ccc(OC)cc1OC)C(=O)CC(=O)CP(=O)(OCC)OCC (centres undefined) | – | – | > 100 µM | > 100 µM | > 100 µM | > 100 µM | > 100 µM | > 100 µM | > 100 µM | > 100 µM | – | – | – | – | – | – | – | – | – | –
COC(=O)c1cc([N+](=O)[O-])cc([N+](=O)[O-])c1Cl | 3.64 µM | 3.91 µM | > 100 µM | 25.4 µM | 3.22 µM | 3.12 µM | 4.22 µM | 3.49 µM | 3.95 µM | – | 1.89 µM | 1.88 µM | 2.24 µM | 12.7 µM | 1.79 µM | 1720 nM | 1980 nM | 1.88 µM | 1.86 µM | –
COc1cc(/C=C/C(=O)O[C@H]2[C@H](O[C@@H]3O[C@@H](C)[C@H](O)[C@@H](O)[C@H]3O)[C@@H](O)[C@H](OCCc3ccc(O)c(O)c3)O[C@@H]2COC2OCC(O)(CO)C2O)ccc1O (some centres undefined) | 35.2 µM | > 100 µM | > 100 µM | > 100 µM | > 100 µM | > 100 µM | – | – | > 100 µM | – | 17.3 µM | > 100 µM | 63.3 µM | 49.3 µM | > 100 µM | > 100000 nM | – | – | > 100 µM | –
N#Cc1cc2c(cc1Cl)Sc1nnc(Nc3cccc4ccccc34)n1S2(=O)=O | 16.4 µM | 18 µM | > 100 µM | 10.1 µM | 45.4 µM | 4.15 µM | 5.2 µM | 12.7 µM | 20.5 µM | – | 4.35 µM | 4.75 µM | 4.08 µM | 2.85 µM | 16.9 µM | 2020 nM | 2400 nM | 3.96 µM | 7.41 µM | –
C/C(=N\NC(=O)C(N)=O)c1c(O)cc(C)oc1=O | – | – | > 100 µM | > 100 µM | > 100 µM | – | > 100 µM | > 100 µM | > 100 µM | > 100 µM | – | – | – | – | – | – | – | – | – | –
Cc1ccc(S(=O)(=O)NC(=O)OC23COCN2COC3)cc1 | > 100 µM | > 100 µM | > 100 µM | > 100 µM | > 100 µM | > 100 µM | > 100 µM | > 100 µM | > 100 µM | – | – | – | – | – | – | – | – | – | – | –
CN1CCCC1c1cccnc1.O=C(O)c1ccccc1O.O=C([O-])c1ccccc1[OH2+].O=C([O-])c1ccccc1[OH2+].[Mn+2] (centres undefined) | > 100 µM | > 100 µM | > 100 µM | > 100 µM | > 100 µM | > 100 µM | – | > 100 µM | > 100 µM | 97.8 µM | > 100 µM | 58.1 µM | > 100 µM | 31.6 µM | > 100 µM | > 100000 nM | – | 98 µM | > 100 µM | 24.8 µM
C=CC(=O)N[C@@H](/C=C/C(=O)OCC)Cc1ccc(-c2cc(Cl)cc(Cl)c2)cc1 | 50 µM | – | > 100 µM | > 100 µM | 91 µM | 35.3 µM | 39.1 µM | 41.9 µM | 96.2 µM | – | 8.58 µM | – | 15.7 µM | 16 µM | 20.2 µM | 7960 nM | 16600 nM | 12.8 µM | 4.42 µM | –
N#CC1C(N)=NNC12Nc1ccccc1S2 (centres undefined) | 51.3 µM | > 100 µM | 34.7 µM | > 100 µM | > 100 µM | – | – | – | > 100 µM | – | 13.9 µM | 14.1 µM | 14.1 µM | 62.9 µM | 63.4 µM | – | – | – | 33.1 µM | –
Clc1ccc([I+]c2ccc(Cl)cc2Cl)c(Cl)c1 | 4.33 µM | 4.72 µM | 5.1 µM | 4.99 µM | 4.36 µM | – | 3.39 µM | 3.26 µM | 2.98 µM | 5.32 µM | 1.96 µM | 1.94 µM | 2.03 µM | 2.14 µM | 2.09 µM | – | 1800 nM | 1.78 µM | 1.48 µM | 2.09 µM
COc1ccc(/C=N\Nc2nc(SCC(C)C)nc(-c3ccc(OC)cc3)c2C#N)cc1 | > 100 µM | – | > 100 µM | 67.7 µM | 9.33 µM | 15.8 µM | 20.1 µM | 20.1 µM | 3.73 µM | > 100 µM | 17.9 µM | – | 19.1 µM | 11.7 µM | 1.86 µM | 2810 nM | 6280 nM | 3.19 µM | 1.5 µM | 9.78 µM
CC1CCC2(C)C(CC=C(C=O)C2(O)C=O)C12CO2 (centres undefined) | – | – | 4.67 µM | 18 µM | 5.83 µM | 2.85 µM | 4.52 µM | 8.03 µM | 5.69 µM | 4.01 µM | – | – | – | – | – | – | – | – | – | –
O=C(c1c(O)cc(O)cc1O)C1Cc2ccccc21 (centres undefined) | – | – | > 100 µM | > 100 µM | > 100 µM | > 100 µM | > 100 µM | > 100 µM | > 100 µM | > 100 µM | – | – | – | – | – | – | – | – | – | –
